Assay results taken from US20020165133A1 (priority 2001, published 2002).
Entries after “also recorded” stand apart in the source; their conditions may differ.

System: C57BL/6 mice
Experiment: Test of hair regrowth effects on the shaved backs of C57BL/6 mice
Type: in vivo
Settings: C57BL/6 mice (female), applied over hair removed area once a day for 30 days, 100 μl (0.05% w/v)
Source text: C57BL/6 mice (female), 42˜49 days old, were used in this test.
The mice were removed of hair on their backs using an electric shaver, and weighed. The mice were divided into several groups with weights equally distributed. […] The degree of hair growth were judged by naked eye and the back sides of the mice were photographed.

Substance: [Leu^4]cyclosporin A [M21]
- hair growth effect (degree of hair growth judged by naked eye): no significant effect; also recorded: no hair growth effect
